Consider 2 compounds from patent US20130022629A1, “Modulators of Immunoinhibitory Receptor PD-1, and Methods of Use Thereof” (priority 2010, published 2013).

“Also recorded” adds a separate entry of the source.

The target in experiment [1] is T1, PD-1 (Mus musculus, UniProt Q02242).
T1 construct: expressed in transfected cells; host or cells: CD4 T cells purified from spleens of PD-1^C transgenic mice (transgene-driven constitutive PD-1)
T1 sequence (Q02242 25-288): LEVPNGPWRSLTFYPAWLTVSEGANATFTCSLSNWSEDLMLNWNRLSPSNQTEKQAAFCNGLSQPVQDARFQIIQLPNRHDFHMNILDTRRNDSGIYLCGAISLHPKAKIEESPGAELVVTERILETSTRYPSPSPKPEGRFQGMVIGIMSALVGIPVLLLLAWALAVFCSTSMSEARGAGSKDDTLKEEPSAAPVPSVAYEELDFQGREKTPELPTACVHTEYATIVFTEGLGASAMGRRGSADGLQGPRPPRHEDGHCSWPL
Kind of experiment: Primary screen: IFN-γ production by PD-1^C T cells with plate-bound anti-CD3 plus PD-L2Ig or control Ig. Format: cell-based. To be noted: compared with negative control wells on the plate (FIG. 2). The protocol:
In certain embodiments, PD-1^C T cells are cultured with a proliferative stimulus (anti-CD3) plus either PD-L2-Ig or a negative control Ig fusion protein. PD-1^C T cells proliferate less and produce lower amounts of cytokines when cultured with PD-L2-Ig as compared to the negative control Ig fusion protein because PD-1-ligands deliver an inhibitory signal through PD-1. Compounds of interest will modulate this inhibitory interaction in wild type and PD-1^C T cells, but not in PD-1^−/− cells. Thus, compounds which are antagonists will block PD-1 inhibitory function and lead to increased T cell responses by wild type and PD-1^C T cells, but will not affect PD-1^−/− T cells. Conversely, compounds which are agonists will deliver an inhibitory signal, and reduce T cell responses by wild type and PD-1^C T cells, but not PD-1^−/− T cells.
Because it is believed that PD-1 can inhibit cytokine (IFN-γ) production to a greater extent than T cell proliferation in a number of situations (36, 44), in certain embodiments IFN-γ production was chosen as the readout, using a bead-based fluorescent ELISA assay. These beads have a broad dynamic range (about 1 pg/mL to about 5 ng/mL), robust detection of cytokines from complex solutions (including culture media), minimal time requirement (about 3 hours from start to finish), and homogeneous format (no washing required). […]

The next experiment concerns PD-1^−/− T cells. Kind of experiment: Specificity control: responses of PD-1^−/− (KO) T cells to compound. Format: cell-based, mouse. Particulars: PD-1^−/− T cells over the range of compound concentrations (FIG. 3). An excerpt:
In vitro assays to test for compounds that interfere with the PD-1 function have been developed. These assays utilize unique mouse strains to specifically identify PD-1-specific effects. For example, a transgenic mouse that constitutively expresses PD-1 on T cells (PD-1^C) has been developed (43). It has recently been disclosed that PD-1^C T cells are very susceptible to signaling through PD-1, as measured by a decrease in T cell proliferation and cytokine production. These PD-1^C T cells can be used to assess the functional effects of small molecules. A PD-1 deficient mouse (PD-1^−/−) has also been developed (44), and T cells from such mice will serve as useful controls for in vitro as well as in vivo studies. In certain embodiments, PD-1^C T cells are cultured with a proliferative stimulus (anti-CD3) plus either PD-L2-Ig or a negative control Ig fusion protein. […] The specificity of the effects of sulfamonomethoxine and sulfamethizole were assessed by comparing responses of wild type, PD-1^c, and PD-1^−/− T cells. The effects of sulfamonomethoxine and sulfamethizole were evaluated over a range of compound concentrations (dilution series from 16 nM to 80 μM) and analyzed their effects on T cell proliferation and cytokine production. […]

Experiment [2] has as its target T1, PD-1. The experiment in a line: Validation (secondary screen): rescue of PD-1 mediated inhibition of IFN-γ production in PD-1^C (Tg) T cells. Type of experiment: cell-based. Particulars: PD-L2Ig versus control Ig (FIG. 3). An excerpt: In vitro assays to test for compounds that interfere with the PD-1 function have been developed. These assays utilize unique mouse strains to specifically identify PD-1-specific effects. For example, a transgenic mouse that constitutively expresses PD-1 on T cells (PD-1^C) has been developed (43). It has recently been disclosed that PD-1^C T cells are very susceptible to signaling through PD-1, as measured by a decrease in T cell proliferation and cytokine production. These PD-1^C T cells can be used to assess the functional effects of small molecules. A PD-1 deficient mouse (PD-1^−/−) has also been developed (44), and T cells from such mice will serve as useful controls for in vitro as well as in vivo studies.
In certain embodiments, PD-1^C T cells are cultured with a proliferative stimulus (anti-CD3) plus either PD-L2-Ig or a negative control Ig fusion protein. […]
The specificity of the effects of sulfamonomethoxine and sulfamethizole were assessed by comparing responses of wild type, PD-1^c, and PD-1^−/− T cells. The effects of sulfamonomethoxine and sulfamethizole were evaluated over a range of compound concentrations (dilution series from 16 nM to 80 μM) and analyzed their effects on T cell proliferation and cytokine production. […]

As for `Cc1nnc(NS(=O)(=O)c2ccc(N)cc2)s1` [sulfamethizole], the “rescue of IFN-γ production in the primary screen” value on PD-1 [1] is recorded as “rescue of IFN-γ production above the negative control wells”. Also, the “effect on PD-1 KO T cells” value in the experiment with PD-1^−/− T cells was “no effect”. At PD-1 [2], the “specificity: rescue/block of PD-1 mediated inhibition in PD-1 Tg cells” value is recorded as “block of PD-1 mediated inhibition in PD-1 Tg cells only when PD-L2 was present; also recorded: rescue of PD-1 mediated inhibition in PD-1 Tg cells only when PD-L2 was present”.
On the same counts, the results for `COc1cc(NS(=O)(=O)c2ccc(N)cc2)ncn1` [sulfamonomethoxine] are “rescue of IFN-γ production above the negative control wells”, “no effect” and “block of PD-1 mediated inhibition in PD-1 Tg cells only when PD-L2 was present; also recorded: rescue of PD-1 mediated inhibition in PD-1 Tg cells only when PD-L2 was present”.
